Laboratory results published in publication PMC5072635 (PLoS ONE, 2016).
Values after ≈ are worked out from the molar mass of the structure shown. Values joined by “and” are separate entries in the source; they are usually repeats but may differ in a detail not shown here. Equal values may be shown once. Read-outs that look alike come from different tables or passages of the source.

Tests used:
total AKT microclusters = experiment: TIRF microscopy of AKT microcluster formation in APBTs; type: cell-based, human
Protocol: (§1) APBTs were stimulated in the presence of 0.1% ethanol control or 10 μg/ml GML with plate-bound anti-CD3 on glass coverslips, fixed with 4% paraformaldehyde, permeabilized with 0.25% Triton-X, and stained as described below. To detect microcluster formation of TCR signaling proteins, antibodies specific for LAT pY226 (BD Pharmingen), PLC-γ pY783 (Cell Signaling, and total AKT (Cell signaling) were incubated with fixed and permeabilized cells overnight for 4°C. Subsequently, conjugated secondary antibodies Dylight Goat anti-rabbit IgG and DyLight 568 Goat anti-rabbit IgG (Biolegend) as well as Alexa Fluor 488 goat anti-mouse IgG1 (Thermo Fisher) were incubated with the cells at room temperature for 2 hours. All images were captured by the Leica AM TIRF MC system using 100x magnification oil immersion objective lens at room temperature at the University of Iowa Central Microscopy Research Facility.
(§2) TIRF microscopy images were processed and analyzed using ImageJ. Quantification of membrane clustering was done by measuring mean pixel intensity in the […] of cells for 60 cells total from at least 3 independent experiments. Similar quantification methods have been used in other published reports.
(§3) (A). […] Pixel intensities of median axis of each cell in images obtained in (A) were quantified and averaged using ImageJ. […]

[1] = target: T1, bovine serum albumin (BSA) (Bos taurus, UniProt P02769); experiment: Isothermal titration calorimetry with bovine serum albumin; type: binding
T1 construct: purchased Sigma Aldrich
Protocol: (§4) Supplementary file pone.0165083.s001.pdf: S1 Fig ITC curves of GML with various mammalian albumins. 150μM of GML was injected incrementally into the sample chamber containing 5μM of mammalian albumins. […] (PDF) Click here for additional data file.

IL-2 production = experiment: ELISA of TCR-induced IL-2 production by APBTs; type: cell-based, human
Protocol: (§5) The cells were then stimulated with plate-bound 2 μg/ml of anti-CD3 (Biolegend) for 24 hours. Protein concentrations of IL-2, IFN-γ, IL-10, and TNF-α in the media supernatants were measured by standard TMB ELISA.
(§6) Cells were plated on 2 μg/ml anti-CD3 coated plates for 24 hours. Extracellular cytokine production for (A) IFN-γ, (B) IL-2, (C) IL-10, or (D) TNFα was measured by ELISA in 3 independent experiments with different human donors. To statistically confirm that GML is suppressing cytokine production without serum, Student t’s test was done by comparing EtOH treated groups with GML treated groups under the same serum free environment, indicated by the black bars, with # denoting p<0.05.

[2] = tested on: AKT phosphorylation at threonine 308 and serine 473; experiment: TCR-induced AKT phosphorylation by immunoblotting in APBTs; type: cell-based, human
Protocol: The cells were then incubated on ice with 2 μg/ml anti-CD3 for 30 minutes. […] Cells were then lysed with 2X sample buffer, heated to 95°C, and sonicated.
Cell lysates were separated by polyacrylamide gel electrophoresis and transferred to PVDF. The membranes were blocked in 0.5X SEA BLOCK blocking buffer diluted in PBS. Primary antibodies were incubated overnight at 4°C. Secondary antibodies were incubated with the membrane for 30 minutes at room temperature and then imaged using Licor Odyssey (Lincoln, NE, USA). At least four independent replicates with different human donors were performed for each experiment. Immunoblot band intensity was quantified using Odyssey’s v3.0 software with the intensity of the phospho-specific antibody normalized to the intensity of the GAPDH antibody. To minimize variability between human donors, band intensities were further normalized to maximal band intensity of ethanol vehicle control. The following antibodies were used for immunoblotting: AKT pThr 308 (Cell Signaling), AKT pS473 (Invitrogen), GAPDH (Meridian Life Sciences), and IRDye 800CW or IRDye680-conjugated secondary antibodies (Thermo Scientific).
Cells were stimulated by crosslinking 2 μg/ml of anti-CD3 for various times. Phosphorylation of AKT at threonine 308 and serine 473 were assessed by immunoblotting.

[3] = target: human serum albumin (HSA) (Homo sapiens, UniProt P02768); experiment: Isothermal titration calorimetry with human serum albumin; settings: for ΔH: room temperature, pH 7.4
Protocol: (§7) All samples were degassed, and ITC was performed at room temperature as previously described using MicroCal VP-ITC calorimeter. […] The data were analyzed using a single-site binding model provided in the ITC analysis software package. […] The values for ΔH, Kd and stoichiometry averaged ± standard deviation. […] The values for stoichiometry and binding affinity were derived from the ITC experiments.
150 μM of ethanol solubilized GML was placed in the syringe and injected into the sample chamber twenty one times with 180 seconds interval between injections.

IL-10 production = experiment: ELISA of TCR-induced IL-10 production by APBTs; type: cell-based, human
Protocol: as §5
(§8) Cells were plated on 2 μg/ml anti-CD3 coated plates for 24 hours. Extracellular cytokine production for (A) IFN-γ, (B) IL-2, (C) IL-10, or (D) TNFα was measured by ELISA in 3 independent experiments with different human donors.

IFN-γ production = experiment: ELISA of TCR-induced IFN-γ production by APBTs; type: cell-based, human
Protocol: as §5, §8

LAT pY226 microclusters = experiment: TIRF microscopy of LAT microcluster formation in APBTs; type: cell-based, human
Protocol: as §1, §2, §3

[4] = cited from earlier work
pig serum albumin (PSA) = target: T2, pig serum albumin (PSA) (Sus scrofa, UniProt P08835); experiment: Isothermal titration calorimetry with pig serum albumin; type: binding
T2 construct: purchased Sigma Aldrich
Protocol: as §4

[5] = tested on: PLC-γ1 pY783 microclusters; experiment: TIRF microscopy of PLC-γ1 microcluster formation in APBTs; type: cell-based, human
Protocol: as §1, §2, §3

HSA = tested on: HSA
Protocol: as §7
While the presence of other ligands would increase the proportion of free floating GML unbound to albumin, we assumed there were no other albumin ligands present in the system to simplify our calculations.
(PDF) Click here for additional data file.

TNF-α production = experiment: ELISA of TCR-induced TNF-α production by APBTs; type: cell-based, human
Protocol: as §5, §6

[6] = target: T3, rabbit serum albumin (RSA) (Oryctolagus cuniculus, UniProt P49065); experiment: Isothermal titration calorimetry with rabbit serum albumin; type: binding
T3 construct: purchased Sigma Aldrich
Protocol: as §4

[7] = target: T4, mouse serum albumin (MSA) (Mus musculus, UniProt P07724); experiment: Isothermal titration calorimetry with mouse serum albumin; type: binding
T4 construct: purchased Sigma Aldrich
Protocol: as §4

[8] = GML doses 10 μg/ml or greater, absence of serum albumin, anti-CD3 24 hours
[9] = 10 μg/ml GML, serum free media, significant at 5 and 15 minutes post stimulation
[10] = ITC, single-site model, 5 μM albumin, 150 μM ligand

human serum albumin (HSA), sequence (P02768 25-609): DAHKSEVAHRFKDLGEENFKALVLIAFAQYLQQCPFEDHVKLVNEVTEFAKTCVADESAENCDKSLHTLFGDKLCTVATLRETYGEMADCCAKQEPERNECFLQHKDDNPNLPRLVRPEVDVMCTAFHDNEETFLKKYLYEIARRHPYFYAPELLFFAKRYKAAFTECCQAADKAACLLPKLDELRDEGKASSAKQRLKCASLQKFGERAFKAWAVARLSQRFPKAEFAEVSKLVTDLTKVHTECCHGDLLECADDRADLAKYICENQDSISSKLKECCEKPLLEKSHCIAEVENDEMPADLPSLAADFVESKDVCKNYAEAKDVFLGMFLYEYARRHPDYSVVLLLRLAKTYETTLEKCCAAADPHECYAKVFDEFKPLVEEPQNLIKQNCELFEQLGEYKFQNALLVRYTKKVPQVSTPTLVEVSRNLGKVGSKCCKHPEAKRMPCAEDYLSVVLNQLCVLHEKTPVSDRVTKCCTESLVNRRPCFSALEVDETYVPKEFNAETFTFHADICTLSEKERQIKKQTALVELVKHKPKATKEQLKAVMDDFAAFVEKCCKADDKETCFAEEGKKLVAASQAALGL
T1 sequence (P02769 25-607): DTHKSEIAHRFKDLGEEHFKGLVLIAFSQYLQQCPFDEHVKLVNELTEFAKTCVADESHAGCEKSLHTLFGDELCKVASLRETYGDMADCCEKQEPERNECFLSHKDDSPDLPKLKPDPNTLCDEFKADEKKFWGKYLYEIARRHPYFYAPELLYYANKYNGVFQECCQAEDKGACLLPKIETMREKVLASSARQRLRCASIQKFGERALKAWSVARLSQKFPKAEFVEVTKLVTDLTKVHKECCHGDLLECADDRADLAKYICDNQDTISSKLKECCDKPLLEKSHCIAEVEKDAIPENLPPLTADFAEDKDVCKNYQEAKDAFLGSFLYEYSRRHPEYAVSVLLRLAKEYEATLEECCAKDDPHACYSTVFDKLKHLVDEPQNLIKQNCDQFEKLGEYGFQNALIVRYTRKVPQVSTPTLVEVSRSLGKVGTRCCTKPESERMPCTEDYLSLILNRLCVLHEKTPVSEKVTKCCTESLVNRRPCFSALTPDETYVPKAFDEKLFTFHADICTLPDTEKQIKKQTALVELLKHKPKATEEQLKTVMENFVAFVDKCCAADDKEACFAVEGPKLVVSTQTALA
T4 sequence (P07724 25-608): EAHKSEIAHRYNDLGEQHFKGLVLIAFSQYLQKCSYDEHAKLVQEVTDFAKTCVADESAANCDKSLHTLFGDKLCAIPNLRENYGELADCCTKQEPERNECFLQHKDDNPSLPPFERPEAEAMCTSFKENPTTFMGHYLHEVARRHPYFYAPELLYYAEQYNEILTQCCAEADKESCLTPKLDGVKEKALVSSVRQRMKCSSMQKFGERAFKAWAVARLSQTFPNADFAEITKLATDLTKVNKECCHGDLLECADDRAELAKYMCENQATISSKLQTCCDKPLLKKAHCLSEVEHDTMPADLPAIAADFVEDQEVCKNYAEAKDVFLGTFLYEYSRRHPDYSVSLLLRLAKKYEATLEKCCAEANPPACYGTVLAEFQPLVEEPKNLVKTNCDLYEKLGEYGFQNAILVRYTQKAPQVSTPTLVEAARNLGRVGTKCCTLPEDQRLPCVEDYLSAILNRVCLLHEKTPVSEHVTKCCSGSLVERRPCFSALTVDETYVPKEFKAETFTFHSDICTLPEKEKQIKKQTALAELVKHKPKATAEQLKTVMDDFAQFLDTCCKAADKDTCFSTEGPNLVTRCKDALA
T3 sequence (P49065 25-608): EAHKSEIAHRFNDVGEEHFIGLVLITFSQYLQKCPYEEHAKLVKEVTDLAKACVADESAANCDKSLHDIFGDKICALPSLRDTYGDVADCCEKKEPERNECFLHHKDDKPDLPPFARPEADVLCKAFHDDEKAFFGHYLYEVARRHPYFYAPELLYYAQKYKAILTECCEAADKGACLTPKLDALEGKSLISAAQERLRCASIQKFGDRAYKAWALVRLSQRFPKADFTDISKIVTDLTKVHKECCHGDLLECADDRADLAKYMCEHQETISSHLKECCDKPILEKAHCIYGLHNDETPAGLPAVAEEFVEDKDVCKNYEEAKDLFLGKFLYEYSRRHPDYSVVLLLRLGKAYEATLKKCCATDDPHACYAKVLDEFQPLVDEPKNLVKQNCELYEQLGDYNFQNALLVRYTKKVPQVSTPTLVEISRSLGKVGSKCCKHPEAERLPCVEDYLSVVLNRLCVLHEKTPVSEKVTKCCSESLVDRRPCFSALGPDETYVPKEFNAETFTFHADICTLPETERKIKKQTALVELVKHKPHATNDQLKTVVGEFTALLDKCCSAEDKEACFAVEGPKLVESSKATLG
T2 sequence (P08835 25-607): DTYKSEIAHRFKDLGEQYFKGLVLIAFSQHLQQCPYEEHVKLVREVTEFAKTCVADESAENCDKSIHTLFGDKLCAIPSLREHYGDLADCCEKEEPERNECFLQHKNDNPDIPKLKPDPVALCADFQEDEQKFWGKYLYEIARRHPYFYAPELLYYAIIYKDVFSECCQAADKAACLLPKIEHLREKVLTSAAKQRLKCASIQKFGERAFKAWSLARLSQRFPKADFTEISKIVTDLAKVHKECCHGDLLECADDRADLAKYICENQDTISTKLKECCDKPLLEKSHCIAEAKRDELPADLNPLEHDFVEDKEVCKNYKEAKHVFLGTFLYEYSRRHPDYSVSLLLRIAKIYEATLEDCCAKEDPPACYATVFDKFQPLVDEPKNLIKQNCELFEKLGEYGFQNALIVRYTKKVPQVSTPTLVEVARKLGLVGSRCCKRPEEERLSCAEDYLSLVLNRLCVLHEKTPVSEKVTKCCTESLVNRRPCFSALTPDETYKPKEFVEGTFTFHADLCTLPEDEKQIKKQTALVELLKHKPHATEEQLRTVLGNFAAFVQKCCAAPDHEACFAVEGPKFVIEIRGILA

With CCCCCCCCCCCC(=O)OCC(O)CO (stereo not shown) [GML, Glycerol monolaurate] as the compound, how does the AKT clustering (total AKT microclusters; 10 μg/ml GML alone) read?
Its AKT clustering is “inhibits”.

What about the “AKT clustering in GML treated cells” value (total AKT microclusters; 10 μg/ml GML with 1% HSA) of the same compound?
The value was “relieves this inhibition”.

And the Kd [1]?
The Kd was 2.2 ± 1.1 µM.

What about the ΔH ([1]; ITC, single-site model, BSA) of the same compound?
The ΔH was -4.5 ± 0.77 kcal/mol.

What about the “IL-2 production vs GML in serum free media” value (IL-2 production; 10 μg/ml GML, 2% and 1% HSA) of the same compound?
The value was “significantly increased”.

And the “IL-2 production vs GML in serum free conditions” value (IL-2 production; 20 μg/ml GML, all HSA doses)?
Its value is “did not have significantly increased”.

And the “IL-2 production vs ethanol control” value (IL-2 production; [8])?
The value was “significantly reduced”.

And the “AKT T308 phosphorylation vs GML alone” value ([2]; 10 μg/ml GML in 1% HSA, 5 and 15 minutes post stimulation)?
The value was “significantly increased”.

And the “AKT S473 phosphorylation vs GML alone” value ([2]; 10 μg/ml GML in 1% HSA, 15 minutes post stimulation)?
The value was “significantly increased”.

And the “phosphorylation of both AKT residues (T308, S473) post stimulation vs GML treated cells” value ([2]; 10 μg/ml GML in 1% HSA, below levels in ethanol control)?
Its value is “modest increase”.

What about the “AKT S473 phosphorylation vs ethanol control” value [2, 9] of the same compound?
Its value is “drastically suppressed”.

And the “AKT T308 phosphorylation vs ethanol control” value [2, 9]?
The value was “drastically suppressed”.

And the ΔH [3, 10]?
Its ΔH is -3.0 ± 1.1 kcal/mol.

What about the Kd ([3]; Kd, ITC, single-site model, 5 μM albumin, 150 μM ligand) of the same compound?
The Kd was ~1.4 µM and 1.4 µM.

What about the “IL-10 production vs control APBTs” value (IL-10 production; 10 μg/ml GML, all doses of HSA) of the same compound?
The value was “significantly increased”.

And the “IL-10 production vs GML in serum free media” value (IL-10 production; 20 μg/ml GML, all concentrations of HSA tested)?
Its value is “did not restore”.

And the “IL-10 production vs ethanol control” value (IL-10 production; [8])?
The value was “significantly reduced”.

And the “IFN-γ production vs GML treatment alone” value (IFN-γ production; 1% or 0.2% HSA, 10 μg/ml GML)?
The value was “significant restoration”.

What about the “IFN-γ production vs GML treatment alone” value (IFN-γ production; 2% HSA, both GML doses (10 and 20 μg/ml)) of the same compound?
The value was “significantly restored”.

And the “IFNγ production vs ethanol control” value (IFN-γ production; [8])?
The value was “significantly reduced”.

And the “LAT microcluster formation in GML treated cells” value (LAT pY226 microclusters; 10 μg/ml GML in 1% HSA, to levels similar to ethanol and HSA controls)?
Its value is “significantly increased”.

And the “LAT clustering at the membrane” value (LAT pY226 microclusters; 10 μg/ml GML, serum free media)?
Its value is “drastically decreased”.

What about the aqueous solubility cap ([4]; aqueous, under 37°C, stated as a fact, no reference printed for it) of the same compound?
The aqueous solubility cap was 100 µg/mL (≈ 364 µM).

What about the “solubility in gel formulations” value ([4]; topical GML in gel formulations ref [3],[19]) of the same compound?
The value was “up to 50 mg/ml”.

And the Kd (pig serum albumin (PSA))?
The Kd was 4.5 ± 1.6 µM.

And the ΔH (pig serum albumin (PSA); ITC, single-site model, PSA)?
The ΔH was -2.0 ± 0.63 kcal/mol.

What about the PLC-γ1 clustering ([5]; 10 μg/ml GML alone) of the same compound?
The PLC-γ1 clustering was “inhibits”.

What about the “PLC-γ1 clustering in GML treated cells” value ([5]; 10 μg/ml GML with 1% HSA) of the same compound?
The value was “relieves this inhibition”.

What about the “GML molecules bound to HSA” value (HSA; 10 and 20 μg/ml GML, all HSA concentrations, no other ligands assumed) of the same compound?
The value was > 90%.

What about the “GML bound to albumin” value (HSA; low-albumin sites (urine, vaginal secretions, CSF etc.), GML doses less than 20 μg/ml) of the same compound?
The value was “mostly bound”.

What about the “albumin bound to GML” value (HSA; lymphatic fluid, albumin 40% to 90% of the serum concentration) of the same compound?
Its value is > 99%.

What about the “GML molecules bound to albumin” value (HSA; plasma albumin 35 to 50 g/L, concentrations where GML is soluble, Kd 1.4 μM) of the same compound?
Its value is > 99%.

What about the “concentration of GML-HSA complexes relative to free GML molecules” value (HSA; skin wound exudate albumin 10 to 30 g/L, GML doses between 500 to 5000 μg/ml) of the same compound?
Its value is “within one order of magnitude”.

And the “GML molecules bound to HSA” value (HSA; skin wound exudate albumin 10 to 30 g/L, GML doses greater than 5000 μg/ml)?
Its value is < 2%.

What about the “GML bound to HSA” value (HSA; skin wound exudate albumin 10 to 30 g/L, GML doses less than 500 μg/ml) of the same compound?
Its value is > 90%.

What about the “TNF-α production vs GML in serum free media” value (TNF-α production; 10 and 20 μg/ml GML, all concentrations of HSA) of the same compound?
Its value is “significantly increased”.

And the “TNFα production vs ethanol control” value (TNF-α production; [8])?
The value was “significantly reduced”.

And the Kd [6]?
The Kd was 5.4 ± 1.3 µM.

And the ΔH ([6]; ITC, single-site model, RSA)?
Its ΔH is -4.5 ± 0.61 kcal/mol.

What about the Kd [7] of the same compound?
Its Kd is 6.3 ± 2.7 µM.

And the ΔH ([7]; ITC, single-site model, MSA)?
The ΔH was -4.9 ± 1.1 kcal/mol.

With CCCCCCCCCCCC(=O)O [LA, Lauric acid] as the compound, how does the Kd [3, 10] read?
The Kd was 4.9 ± 1.1 µM.

And the ΔH [3, 10]?
The ΔH was -24 kcal/mol and -24 ± 0.63 kcal/mol.

And the “n (stoichiometry)” value ([3]; ITC, single-site model, ligand:HSA)?
Its value is 1.1 ± 0.4.

With OCC(O)CO [Glycerol, glycerol] as the compound, how does the Kd [3] read?
The Kd was > 50 µM.

What about the “binding reaction with HSA” value ([3]; ITC, 5 μM HSA, 150 μM glycerol) of the same compound?
The value was “did not have measurable binding reaction”.
